{
  "source": "patent US11130960B2",
  "about": "“Methods for conferring or enhancing herbicide resistance on plants and/or alga with protoporphyrinogen oxidase variants” (FARM HANNONG CO., LTD., priority 2014, dated 2021)",
  "test_system": "Halothece sp. PCC 7418 strain",
  "test": "Herbicide resistance test of Halothece sp. PCC 7418 strain in CRBIP medium",
  "assay_type": "cell-based",
  "conditions": "8 days after treatment, CRBIP Medium 1538",
  "procedure": "Halothece sp. PCC 7418 strain was cultured in CRBIP Medium 1538 (Institut Pasteur, France). CRBIP Medium 1538 is a mixed medium of ASNIII and Turks Island Salts 4× at a ratio of 1:1(v/v), and ASNIII medium was composed of 25.0 g of NaCl, 3.5 g of MgSO4.7H2O, 2.0 g of MgCl2.6H2O, 0.5 g of KCl, 0.5 g of CaCl2.2H2O, 0.75 g of NaNO3, 0.02 g of K2HPO4.3H2O, 0.04 g of NaCO3, 2.5 ml of ammonium iron(III) citrate/citric acid monohydrate solution [a mixture of 300 mg of ammonium iron(III) citrate, 300 mg of citric acid monohydrate, and 250 ml of distilled water], 2.5 ml of magnesium titriplex dihydrate solution [a mixture of 0.1 g of Mg EDTA and 500 ml of distilled water], 1 ml of trace metal A5+Co [a mixture of 2.86 g of H3BO3, 1.81 g of MnCl2.4H2O, 0.222 g of ZnSO4.7H2O, 0.39 g of NaMoO4.2H2O, 0.079 g of CuSO4.5H2O, 0.049 g of Co(NO3)2.6H2O and 1000 ml of distilled water], and 1000 ml of distilled water. Turks Island Salts 4× was composed of 112 g of NaCl, 2.68 g of KCl, 22 g of MgCl2.6 H2O, 27.7 g of MgSO4.7 H2O, 5.8 g of CaCl2.2 H2O, and 1000 ml of distilled water. ASNIII medium and Tursk Island Salts 4× were autoclaved at 120° C. for 20 minutes, respectively and then mixed at a ratio of 1:1(v/v).\n5 ml of the above culture medium was added to a test tube, and 2 or 10 μM of Tiafenacil was added thereto or not. The seed-cultured Halothece sp. […]",
  "data": [
    {"compound": "COC(=O)CCNC(=O)C(C)Sc1cc(-n2c(=O)cc(C(F)(F)F)n(C)c2=O)c(F)cc1Cl", "note": "(stereo not shown) [Tiafenacil]", "values": [
      {"measurement": "concentration at which growth of the strain was maintained", "value": 10, "unit": "µM"}
    ]}
  ]
}
